Experimental data reported in the supplement of paper PMC10733146.

How the values were obtained:
Assay in all cases: viability relative to DMSO control (fraction); higher = less drug effect (more viable cells)
Conditions in all cases: 48 h
Nilotinib = compound: Cc1cn(-c2cc(NC(=O)c3ccc(C)c(Nc4nccc(-c5cccnc5)n4)c3)cc(C(F)(F)F)c2)cn1 [Nilotinib]
How it was run: (§1)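 Viability was quantified by CellTiter-Glo luminescence and related to the median of 16 inner DMSO wells. Before that, primary mononuclear tumour cells, fresh or cryopreserved and Ficoll-isolated from blood or bone marrow or prepared from processed lymph node, were plated at 4 × 10^4 cells per well in 384-well plates containing pre-plated compounds at five concentrations, one well each. Plates were incubated in RPMI-1640 with penicillin/streptomycin, L-glutamine and human serum at 37 °C and 5% CO2 for 48 h.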

Ribociclib = compound: CN(C)C(=O)c1cc2cnc(Nc3ccc(N4CCNCC4)cn3)nc2n1C1CCCC1 [Ribociclib]
How it was run: as §1

Birinapant = compound: CC[C@H](NC(=O)[C@H](C)NC)C(=O)N1C[C@@H](O)C[C@H]1Cc1c(-c2[nH]c3cc(F)ccc3c2C[C@@H]2C[C@H](O)CN2C(=O)[C@H](CC)NC(=O)[C@H](C)NC)[nH]c2cc(F)ccc12 [Birinapant]
How it was run: as §1

Imatinib = compound: Cc1ccc(NC(=O)c2ccc(CN3CCN(C)CC3)cc2)cc1Nc1nccc(-c2cccnc2)n1 [Imatinib]
How it was run: as §1

Obatoclax mesylate = compound: COC1=CC(c2cc3ccccc3[nH]2)=N/C1=C\c1[nH]c(C)cc1C [Obatoclax mesylate]
How it was run: as §1

ONO-4059 = compound: CC#CC(=O)N1CC[C@@H](n2c(=O)n(-c3ccc(Oc4ccccc4)cc3)c3c(N)ncnc32)C1 [ONO-4059]
How it was run: as §1

MLN-120B = compound: COc1c(Cl)cc2c([nH]c3cnccc32)c1NC(=O)c1cccnc1C [MLN-120B]
How it was run: as §1

Tozasertib = compound: Cc1cc(Nc2cc(N3CCN(C)CC3)nc(Sc3ccc(NC(=O)C4CC4)cc3)n2)n[nH]1 [Tozasertib]
How it was run: as §1

Pentostatin = compound: OC[C@H]1O[C@@H](n2cnc3c2N=CNC[C@H]3O)C[C@@H]1O [Pentostatin]
How it was run: as §1

TMP269 = compound: O=C(NCC1(c2nc(-c3ccccc3)cs2)CCOCC1)c1cccc(-c2noc(C(F)(F)F)n2)c1 [TMP269]
How it was run: as §1

Vemurafenib = compound: CCCS(=O)(=O)Nc1ccc(F)c(C(=O)c2c[nH]c3ncc(-c4ccc(Cl)cc4)cc23)c1F [Vemurafenib]
How it was run: as §1

Panobinostat = compound: Cc1[nH]c2ccccc2c1CCNCc1ccc(/C=C/C(=O)NO)cc1 [Panobinostat]
How it was run: as §1

[1] = compound: CC(C)(C)OC(=O)Nc1ccc(-c2cc(C(=O)NCCCCCCC(=O)NO)no2)cc1
How it was run: as §1

BI6727 = compound: CC[C@@H]1C(=O)N(C)c2cnc(Nc3ccc(C(=O)N[C@H]4CC[C@H](N5CCN(CC6CC6)CC5)CC4)cc3OC)nc2N1C(C)C [BI6727]
How it was run: as §1

Vincristine = compound: CC[C@]1(O)C[C@H]2CN(CCc3c([nH]c4ccccc34)[C@@](C(=O)OC)(c3cc4c(cc3OC)N(C=O)[C@H]3[C@@](O)(C(=O)OC)[C@H](OC(C)=O)[C@]5(CC)C=CCN6CC[C@]43[C@@H]65)C2)C1 [Vincristine]
How it was run: as §1

Vorinostat = compound: O=C(CCCCCCC(=O)Nc1ccccc1)NO [Vorinostat]
How it was run: as §1

Pralatrexate = compound: C#CCC(Cc1cnc2nc(N)nc(N)c2n1)c1ccc(C(=O)N[C@@H](CCC(=O)O)C(=O)O)cc1 [Pralatrexate]
How it was run: as §1

ERK5-IN-1 = compound: CCOc1cc(C(=O)N2CCC(N3CCN(C)CC3)CC2)ccc1Nc1ncc2c(n1)N(C1CCCC1)c1ccccc1C(=O)N2C [ERK5-IN-1]
How it was run: as §1

Cladribine = compound: Nc1nc(Cl)nc2c1ncn2[C@H]1C[C@H](O)[C@@H](CO)O1 [Cladribine]
How it was run: as §1

AZD7762 = compound: NC(=O)Nc1cc(-c2cccc(F)c2)sc1C(=O)N[C@H]1CCCNC1 [AZD7762]
How it was run: as §1

primary AML patient cells (S007) showed a viability (Nilotinib; 0.016 µM) of 1.19, a viability (Nilotinib; 0.08 µM) of 1.23 and a viability (Nilotinib; 0.4 µM) of 1.24. The viability (Nilotinib; 2 µM) was 1.04, the viability (Nilotinib; 10 µM) was 1.31 and the viability (Ribociclib; 0.024 µM) was 0.949. It also gave a viability (Ribociclib; 0.12 µM) of 0.904, a viability (Ribociclib; 0.6 µM) of 0.766 and a viability (Ribociclib; 3 µM) of 0.308. The viability (Birinapant; 0.0008 µM) was 0.866, the viability (Birinapant; 0.004 µM) was 0.744 and the viability (Birinapant; 0.02 µM) was 0.573. For the same test system, the viability (Birinapant; 0.1 µM) was 0.384, the viability (Birinapant; 0.5 µM) was 0.321 and the viability (Imatinib; 0.016 µM) was 1.16. It also gave a viability (Imatinib; 0.08 µM) of 0.987, a viability (Imatinib; 0.4 µM) of 1.08 and a viability (Imatinib; 2 µM) of 0.765. For the same test system, the viability (Imatinib; 10 µM) was 0.319, the viability (Obatoclax mesylate; 0.024 µM) was 0.717 and the viability (Obatoclax mesylate; 0.12 µM) was 0.684. It also gave a viability (Obatoclax mesylate; 0.6 µM) of 0.659, a viability (Obatoclax mesylate; 3 µM) of 0.254 and a viability (Obatoclax mesylate; 15 µM) of 0.0248. For the same test system, the viability (ONO-4059; 0.0016 µM) was 0.967, the viability (ONO-4059; 0.008 µM) was 0.928 and the viability (ONO-4059; 0.04 µM) was 0.962. The viability (ONO-4059; 0.2 µM) was 1.03, the viability (ONO-4059; 1 µM) was 0.804 and the viability (MLN-120B; 0.024 µM) was 0.816. For the same test system, the viability (MLN-120B; 0.12 µM) was 0.781, the viability (MLN-120B; 0.6 µM) was 0.728 and the viability (MLN-120B; 3 µM) was 0.605. It also gave a viability (MLN-120B; 15 µM) of 0.375.

Test System primary AML patient cells (S027) has a viability (Ribociclib; 0.024 µM) of 1.02, a viability (Ribociclib; 0.12 µM) of 1.03 and a viability (Ribociclib; 0.6 µM) of 1.03. It also gave a viability (Ribociclib; 3 µM) of 0.938, a viability (Ribociclib; 15 µM) of 0.832 and a viability (Tozasertib; 0.024 µM) of 1.01. For the same test system, the viability (Tozasertib; 0.12 µM) was 0.906, the viability (Tozasertib; 0.6 µM) was 0.93 and the viability (Tozasertib; 3 µM) was 0.881. It also gave a viability (Imatinib; 0.016 µM) of 1.17, a viability (Imatinib; 0.08 µM) of 1.17 and a viability (Imatinib; 0.4 µM) of 1.18. It also gave a viability (Imatinib; 10 µM) of 1.05, a viability (ONO-4059; 0.0016 µM) of 0.958 and a viability (ONO-4059; 0.008 µM) of 1.06. For the same test system, the viability (ONO-4059; 0.04 µM) was 0.945, the viability (ONO-4059; 0.2 µM) was 0.943 and the viability (ONO-4059; 1 µM) was 1.01.

primary AML patient cells (S044) showed a viability (Imatinib; 0.08 µM) of 1.06, a viability (Imatinib; 0.4 µM) of 1 and a viability (Imatinib; 2 µM) of 0.924. It also gave a viability (Imatinib; 10 µM) of 0.823.

Work on primary AML patient cells (S054) yielded a viability (Imatinib; 0.016 µM) of 1.05, a viability (Imatinib; 0.08 µM) of 1.05 and a viability (Imatinib; 0.4 µM) of 1. It also gave a viability (Imatinib; 2 µM) of 0.962 and a viability (Imatinib; 10 µM) of 0.807.

primary DLBCL patient cells (S049) was tested, and the viability (Pentostatin; 0.03 µM) was 1.09, the viability (Pentostatin; 0.15 µM) was 0.953 and the viability (Pentostatin; 0.75 µM) was 1.02. It also gave a viability (Pentostatin; 3.75 µM) of 0.907, a viability (Pentostatin; 18.76 µM) of 0.839 and a viability (TMP269; 0.024 µM) of 1.03. For the same test system, the viability (TMP269; 0.12 µM) was 1.08, the viability (TMP269; 0.6 µM) was 1.1 and the viability (TMP269; 3 µM) was 1.01. It also gave a viability (TMP269; 15 µM) of 0.961, a viability (Ribociclib; 0.024 µM) of 1 and a viability (Ribociclib; 0.12 µM) of 1.02. For the same test system, the viability (Ribociclib; 0.6 µM) was 0.976, the viability (Ribociclib; 3 µM) was 0.752 and the viability (Ribociclib; 15 µM) was 0.29. It also gave a viability (Vemurafenib; 0.024 µM) of 0.847, a viability (Vemurafenib; 0.12 µM) of 0.935 and a viability (Vemurafenib; 0.6 µM) of 0.934. For the same test system, the viability (Vemurafenib; 3 µM) was 0.957, the viability (Vemurafenib; 15 µM) was 0.911 and the viability (Panobinostat; 0.00064 µM) was 1.09. It also gave a viability (Panobinostat; 0.0032 µM) of 0.896, a viability (Panobinostat; 0.016 µM) of 0.0566 and a viability (Panobinostat; 0.08 µM) of 0.0257. For the same test system, the viability (Panobinostat; 0.4 µM) was 0.0265, the viability ([1]; 0.024 µM) was 0.925 and the viability ([1]; 0.12 µM) was 0.678. The viability ([1]; 0.6 µM) was 0.327, the viability ([1]; 3 µM) was 0.0379 and the viability ([1]; 15 µM) was 0.0222. For the same test system, the viability (BI6727; 0.024 µM) was 0.902, the viability (BI6727; 0.12 µM) was 0.898 and the viability (BI6727; 0.6 µM) was 0.711. The viability (BI6727; 3 µM) was 0.228, the viability (BI6727; 15 µM) was 0.0414 and the viability (Vincristine; 0.016 µM) was 0.123. It also gave a viability (Vincristine; 0.08 µM) of 0.101, a viability (Vincristine; 0.4 µM) of 0.104 and a viability (Vincristine; 2 µM) of 0.132. For the same test system, the viability (Vincristine; 10 µM) was 0.121, the viability (Vorinostat; 0.016 µM) was 0.996 and the viability (Vorinostat; 0.08 µM) was 0.899. For the same test system, the viability (Vorinostat; 0.4 µM) was 0.797, the viability (Vorinostat; 2 µM) was 0.0724 and the viability (Vorinostat; 10 µM) was 0.0247. The viability (Pralatrexate; 0.024 µM) was 1.02, the viability (Pralatrexate; 0.12 µM) was 0.803 and the viability (Pralatrexate; 0.6 µM) was 0.897. For the same test system, the viability (Pralatrexate; 3 µM) was 0.899, the viability (Pralatrexate; 15 µM) was 0.928 and the viability (Obatoclax mesylate; 0.024 µM) was 0.827. The viability (Obatoclax mesylate; 0.12 µM) was 0.773, the viability (Obatoclax mesylate; 0.6 µM) was 0.538 and the viability (Obatoclax mesylate; 3 µM) was 0.343. It also gave a viability (Obatoclax mesylate; 15 µM) of 0.0387, a viability (ONO-4059; 0.0016 µM) of 0.823 and a viability (ONO-4059; 0.008 µM) of 0.761. It also gave a viability (ONO-4059; 0.04 µM) of 0.687, a viability (ONO-4059; 0.2 µM) of 0.716 and a viability (ONO-4059; 1 µM) of 0.649. It also gave a viability (MLN-120B; 0.024 µM) of 0.954, a viability (MLN-120B; 0.12 µM) of 0.902 and a viability (MLN-120B; 0.6 µM) of 0.946. The viability (MLN-120B; 3 µM) was 0.868, the viability (MLN-120B; 15 µM) was 0.741 and the viability (ERK5-IN-1; 0.024 µM) was 1.04. It also gave a viability (ERK5-IN-1; 0.12 µM) of 1.04, a viability (ERK5-IN-1; 0.6 µM) of 0.717 and a viability (ERK5-IN-1; 3 µM) of 0.177. The viability (ERK5-IN-1; 15 µM) was 0.045, the viability (Cladribine; 0.024 µM) was 0.918 and the viability (Cladribine; 0.12 µM) was 0.853. For the same test system, the viability (Cladribine; 0.6 µM) was 0.512, the viability (Cladribine; 3 µM) was 0.399 and the viability (Cladribine; 15 µM) was 0.305. It also gave a viability (AZD7762; 0.024 µM) of 0.697, a viability (AZD7762; 0.12 µM) of 0.337 and a viability (AZD7762; 0.6 µM) of 0.277. The viability (AZD7762; 3 µM) was 0.344 and the viability (AZD7762; 15 µM) was 0.163.
